In general, IC50 refers to the point on the concentration scale where inhibition reaches its midpoint.

Each structure is given as a SMILES string. Read-outs that look alike come from different tables or passages of the source.

Data set [1] deals with T1, mitochondrial pyruvate carrier (MPC) (Homo sapiens, UniProt O95563+Q9Y5U8).
T1 construct: expressed in transfected cells
T1 sequence (O95563 1-127): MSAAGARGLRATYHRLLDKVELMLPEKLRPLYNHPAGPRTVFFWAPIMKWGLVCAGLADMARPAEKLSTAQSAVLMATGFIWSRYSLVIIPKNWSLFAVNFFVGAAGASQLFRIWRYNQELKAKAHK
T1 sequence (Q9Y5U8 1-109): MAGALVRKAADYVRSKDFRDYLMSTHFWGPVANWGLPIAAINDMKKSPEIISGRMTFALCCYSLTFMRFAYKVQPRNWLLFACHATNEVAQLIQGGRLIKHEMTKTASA
As to the kind of experiment: BRET assay of MPC inhibitory activity in HEK cells expressing MPC2-Rluc8 and MPC1-Venus. In kind it is cell-based. As to the method: The MPC is a heterodimer composed of two subunits, MPC1 and MPC2. MPC1 and MPC2 interact to form an active carrier. In the assay, MPC2 was fused to Rluc8 (Donor) and MPC1 to Venus (Acceptor). These chimeric proteins were stably expressed in HEK cells. BRET activity was measured following addition of coelenterazine in the culture medium. Coelenterazine enters into cells and in contact with luciferase Rluc8 emits light, which activates the emission of fluorescence by the Acceptor, provided the distance between the Donor and Acceptor is <[…]. If the distance between Donor and Acceptor is >[…], no BRET activity is measured. The level of BRET activity reflects a change in the conformation of the MPC: it is high when the carrier is in a closed conformation, low when the carrier is at rest and intermediary when it transports pyruvate. In this case, the BRET activity is the mean value between the BRET value when the carrier is at rest (Maximal distance between Donor and Acceptor) and the BRET value when it is closed (Shortest distance between Donor and Acceptor)
A wide range of concentrations of each of the tested compounds was used from 1 nM to 100 μM.
(BRET reads energy transfer from a luciferase to a nearby fluorophore.)

Data set [2] deals with wild type MDA MB231 cells. In words: Seahorse oxygen consumption rate (OCR) in wild type MDA MB231 cells. In kind it is cell-based. On the procedure:
(§1) To determine whether Compound (1) HCl has any effect on pyruvate-mediated mitochondrial respiration, the extracellular flux analyzer Seahorse was used as described in Compan et al. Seahorse experiments were performed in the following cell lines: HeLa (Cervix cancer cells), A549 (lung cancer cells), wild type MDA MB 231, and MDA MB 231 in which MPC2 has been deleted, leading to inactivation of the MPC (MDA MB231 KO). MDA MB231 cells are epithelial breast cancer cells. Cells were incubated with increasing concentrations of the compounds for one hour at 37° C. before oxygen consumption rate (OCR) measurements. The Seahorse analyzer allowed to measure basal and maximal respiration measured upon depolarization with 1 μM CCCP. […] The KO cells have been deleted of the MPC2 gene and therefore they display no MPC activity. The top panel show a representative experiment of either wild type (WT) or KO cell lines. […] OCR values are expressed as ratios of OCR in the presence of different concentrations of the tested compound over the OCR in PBS alone.

Another data set has as its system adiponectin. In words: Plasma adiponectin by ELISA in Sprague Dawley rats as a measure of PPAR gamma engagement. The class given is in vivo, rat. The following applies: 7 days, 54 mg/Kg/day, plasma 1 h after last administration, vs vehicle p<0.0001. As to the method: Evaluation of effect of Compound (1) HCl on adiponectin was performed in Sprague Dawley wild type rats as a measure of PPAR gamma engagement. The rats were treated for 7 days with increasing doses of Compound (1) HCl at 54 mg/Kg/day. Plasma were obtained at 1 h after the last Compound (1) HCl administration. Adiponectin levels were measured by ELISA. Results were represented as mean+standard error of the mean of n=8. Data were analyzed by Kruskal-Wallis followed by the Dunn post-hoc test versus the vehicle group (****, p<0.0001).

A further data set relates to HeLa cells. In words: Seahorse oxygen consumption rate (OCR) in HeLa cells. The following applies: Homo sapiens, 1 h incubation at 37° C. The class given is cell-based. On the procedure: (§2) To determine whether Compound (1) HCl has any effect on pyruvate-mediated mitochondrial respiration, the extracellular flux analyzer Seahorse was used as described in Compan et al. Seahorse experiments were performed in the following cell lines: HeLa (Cervix cancer cells), A549 (lung cancer cells), wild type MDA MB 231, and MDA MB 231 in which MPC2 has been deleted, leading to inactivation of the MPC (MDA MB231 KO). MDA MB231 cells are epithelial breast cancer cells. Cells were incubated with increasing concentrations of the compounds for one hour at 37° C. before oxygen consumption rate (OCR) measurements. The Seahorse analyzer allowed to measure basal and maximal respiration measured upon depolarization with 1 μM CCCP. Effects of Compound (1) HCl on oxygen consumption rates (OCR) in HeLa cells (FIG. 3A) and A549 cells (FIG. 3B) in a representative experiment of n=3. OCR values are expressed as ratios of OCR in the presence of different concentrations of compounds over the OCR in PBS alone.

Data set [3] can be described thus: Multiple ascending dose (MAD) study, pharmacokinetics in human subjects. In kind it is in vivo. As to the method: The mean AUC0-tau ss (% CV) (135 μg·h/mL (20)) and Cmaxss (% CV) (9488 ng/ml (17)) was determined at the steady state day 8 in case 135 mgs. The mean AUC0-tau ss (% CV) (299 μg·h/mL (21) and Cmaxss(% CV) (17200 ng/ml (18) was determined at the steady state day 8 in case 270 mgrs.
Across all ascending dose studies in humans the increase in dose is linearly related to the increase in AUC. Because of the inter subject variability in clearance it is required to select a start dose which is not excessively above the 200 μg·h/mL target AUCs.
The PK data from the MAD study was used to generate a start dose which is most likely no cause toxicity or adverse events in subjects. A dose of 150 mg was chosen as it would give a geometric mean AUCtau of 167 μg·h/mL SD 33 with a 95% confidence interval of 102-232 μg·h/mL. At this dose approximated 75% of patients will be below 200 μg·h/mL and it is unlikely that any patient will exceed 240 μg·h/mL.

The test system of data set [4] is MCD diet fed C57BL6/J mice. In words: 7-week Methionine Choline Deficient (MCD) diet NASH mouse model. The class given is in vivo. On the procedure:
The preventive effects of Compound (1) HCl was evaluated in a 7-week Methionine Choline Deficient (MCD) diet NASH mouse model (Verdelho Machado et al.). After the acclimation period, C57BL6/J male mice (n=20) were weighed and randomized into 2 homogenous treatment groups based on body weight (n=10/group), put on a MCD diet, and treated BID orally with vehicle or Compound (1) HCl for 7 weeks. Compound (1) HCl was dosed 62.5 mg/kg BID orally by gavage. […] Body weight was measured 3 times/week until the end of the experimental phase. At 7 weeks of diet/treatment, mice were weighed and treated at ˜08:00 am in the morning, then bled (maximal volume/EDTA) at […]. Plasma was then immediately isolated and stored at −80° C. prior to assay plasma ALT and AST. The plasma volume left over was stored at −80° C. for eventual additional analysis. After blood collection, the mice were sacrificed by cervical dislocation under isoflurane anesthesia and exsanguinated with sterile saline. A NAFLD scoring system (NAS) adapted from Kleiner et al. (Hepatology. 41(6):1313-1321 (2005)) using the criteria described in the Table 2 below: Several other histopathological observations described in clinical human cases and originally reported in the NAS scoring system published by Kleiner et al. were not observed in this animal study, such as lipogranuloma, acidophil bodies, megamitochondria, and pigmented macrophages. Therefore, it was elected not to include them in the scoring system described above. An individual mouse NAS total score was calculated for each animal by summing up the score for (1) hepatocellular steatosis, (2) liver inflammation, (3) lobular fibrosis, and (4) hepatocyte ballooning. Histology analysis was performed (oil red 0, H&E and Sirius Red staining) for NAFLD scoring system (NAS) for liver steatosis, inflammation, fibrosis and hepatocyte ballooning.

Another data set deals with MDA MB231 KO cells. In words: Seahorse oxygen consumption rate (OCR) in MDA MB231 KO cells (MPC2 deleted). The class given is cell-based. To be noted: MPC activity genetically deleted. On the procedure: as §1
Another data set concerns A549 cells. In words: Seahorse oxygen consumption rate (OCR) in A549 cells. In kind it is cell-based. To be noted: Homo sapiens, 1 h incubation at 37° C. As to the method: as §2

Regarding `CC(O)c1ccc(CCOc2ccc(CC3SC(=O)NC3=O)cc2)nc1.Cl` (stereo not drawn) [Compound (1) HCl, 5-[[4-[2-[5-(1-hydroxyethyl)pyridin-2-yl]ethoxy]phenyl]methyl]-1,3-thiazolidine-2,4-dione hydrochloride], the half-inhibitory concentration (IC50) in data set [1] (BRET assay, HEK cells, read-out: IC50 MPC inhibitory activity) is 4.1 µM; in the data set with HeLa cells, roughly 5 µM; with A549 cells it was roughly 5 µM. Further, the “effect on oxygen consumption” value in data set [2] was “inhibits oxygen consumption in a MPC dependent manner”; with MDA MB231 KO cells, “does not inhibit oxygen consumption”. Moreover, the plasma adiponectin levels result with adiponectin was “significantly increased”. In addition, the “change in clearance with time” value in data set [3] (human subjects, 135 mg and 270 mg) is “no change in clearance with time”. The “mean Cmaxss” value in data set [3] (human subjects, 135 mg, steady state day 8) was determined as 9488 ng/mL; in data set [3] (human subjects, 270 mg, steady state day 8) it was 17200 ng/mL. For the same molecule, the AUC in data set [3] (human, plasma, oral, start dose 150 mg, generated from MAD PK data, SD 33, 95% CI 102-232, read-out: geometric mean AUCtau) is 167 µg·h/mL; in data set [3] (in vivo, human subjects, 135 mg, steady state day 8, read-out: mean AUC0-tau ss), 135 µg·h/mL; in data set [3] (in vivo, human subjects, 270 mg, steady state day 8, read-out: mean AUC0-tau ss) it was 299 µg·h/mL. In addition, the “Cmin ss associated with the target AUC0-tau ss” value in data set [3] (line of best fit of day 8 MAD data, target AUC0-tau ss 200 μg·h/mL) worked out at 5716 ng/mL. The hepatic cholesterol levels result in data set [4] (62.5 mg/kg BID orally, 7 weeks) was “did not show a change”. In addition, in data set [4] (62.5 mg/kg BID orally, day 14 to day 50), the body weight loss entry is reported as “less severe decline in body weight loss”. The liver inflammation result in data set [4] (7 weeks) is “total disappearance of inflammation”. For the same molecule, the “oil red o staining %” value in data set [4] (7 weeks, vs vehicle p<0.001) is on record as “extremely low”. The steatosis score entry in data set [4] (7 weeks, vs vehicle p<0.001) is recorded as “blunted steatosis score”.

`CN(CCOc1ccc(CC2SC(=O)NC2=O)cc1)c1ccccn1` (stereo not drawn) [Rosiglitazone, rosiglitazone, reference compound] yielded an IC50 in data set [1] of 2 µM.

Consider `CC(O)c1ccc(CCOc2ccc(CC3SC(=O)NC3=O)cc2)nc1` (stereo not drawn) [Compound (1), 5-[[4-[2-[5-(1-hydroxyethyl)pyridin-2-yl]ethoxy]phenyl]methyl]-1,3-thiazolidine-2,4-dione], for which, in data set [3] (humans), the linearity of pharmacokinetics entry is listed as “linear pharmacokinetics” and the oral bioavailability result is “orally bioavailable”.

The values are drawn from US20210308113A1, “METHOD OF ADMINISTERING A […] EFFECTIVE AMOUNT OF 5-[[4-[2-[5-(1-HYDROXYETHYL)PYRIDIN-2-YL]ETHOXY]PHENYL]METHYL]-1,3-THIAZOLIDINE-2,4-DIONE” (MINORYX THERAPEUTICS S.L., priority 2018, published 2021).
